According to PubChem BioAssay (NCI):
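Step 1: Grow cells in 96-well plates. Step 2: Expose to compound for 48 hours at 5 concentrations. Step 3: Interpolate endpoints linearly; if unreached, use highest concentration. The concentration for full growth arrest is given as TGI.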

Assays:
Assay in all cases: NCI-60 cell line screen, 48 h
786-0 renal = system: 786-0 renal
A498 renal = system: A498 renal
A549 NSCLC = system: A549 NSCLC
ACHN renal = system: ACHN renal
BT-549 breast = system: BT-549 breast
CAKI-1 renal = system: CAKI-1 renal
CCRF-CEM leukemia = system: CCRF-CEM leukemia
EKVX NSCLC = system: EKVX NSCLC
HCC-2998 colon = system: HCC-2998 colon
HCT-116 colon = system: HCT-116 colon
HCT-15 colon = system: HCT-15 colon
HL-60(TB) leukemia = system: HL-60(TB) leukemia
HOP-62 NSCLC = system: HOP-62 NSCLC
HOP-92 NSCLC = system: HOP-92 NSCLC
HS 578T breast = system: HS 578T breast
HT29 colon = system: HT29 colon
IGROV1 ovarian = system: IGROV1 ovarian
K-562 leukemia = system: K-562 leukemia
KM12 colon = system: KM12 colon
LOX IMVI melanoma = system: LOX IMVI melanoma
M14 melanoma = system: M14 melanoma
MALME-3M melanoma = system: MALME-3M melanoma
MCF7 breast = system: MCF7 breast
MDA-MB-231 breast = system: MDA-MB-231 breast
MDA-MB-435 = system: MDA-MB-435
MDA-N = system: MDA-N
MOLT-4 leukemia = system: MOLT-4 leukemia
NCI-H226 lung = system: NCI-H226 lung
NCI-H23 lung = system: NCI-H23 lung
NCI-H460 lung = system: NCI-H460 lung
NCI-H522 lung = system: NCI-H522 lung
NCI/ADR-RES ovarian = system: NCI/ADR-RES ovarian
OVCAR-3 ovarian = system: OVCAR-3 ovarian
OVCAR-4 ovarian = system: OVCAR-4 ovarian
OVCAR-5 ovarian = system: OVCAR-5 ovarian
OVCAR-8 ovarian = system: OVCAR-8 ovarian
PC-3 prostate = system: PC-3 prostate
RPMI-8226 leukemia = system: RPMI-8226 leukemia
RXF 393 renal = system: RXF 393 renal
SF-268 CNS = system: SF-268 CNS
SF-295 CNS = system: SF-295 CNS
SF-539 CNS = system: SF-539 CNS
SK-MEL-2 melanoma = system: SK-MEL-2 melanoma
SK-MEL-28 melanoma = system: SK-MEL-28 melanoma
SK-MEL-5 melanoma = system: SK-MEL-5 melanoma
SK-OV-3 ovarian = system: SK-OV-3 ovarian
SN12C renal = system: SN12C renal
SNB-75 CNS = system: SNB-75 CNS
SR leukemia = system: SR leukemia
SW-620 colon = system: SW-620 colon
T-47D breast = system: T-47D breast
TK-10 renal = system: TK-10 renal
U251 CNS = system: U251 CNS
UACC-257 melanoma = system: UACC-257 melanoma
UACC-62 melanoma = system: UACC-62 melanoma
UO-31 renal = system: UO-31 renal
COLO 205 colon = system: COLO 205 colon
DU-145 prostate = system: DU-145 prostate
SNB-19 CNS = system: SNB-19 CNS

CCOc1ccc(NC(=O)C(=O)Nn2c(N)nnc2N)cc1 was tested, and the TGI (786-0 renal) was > 100 µM, the TGI (A498 renal) was > 100 µM and the TGI (A549 NSCLC) was > 100 µM. For the same compound, the TGI (ACHN renal) was > 100 µM, the TGI (BT-549 breast) was > 100 µM and the TGI (CAKI-1 renal) was > 100 µM. The TGI (CCRF-CEM leukemia) was > 100 µM, the TGI (EKVX NSCLC) was > 100 µM and the TGI (HCC-2998 colon) was > 100 µM. The TGI (HCT-116 colon) was > 100 µM, the TGI (HCT-15 colon) was > 100 µM and the TGI (HL-60(TB) leukemia) was > 100 µM. The TGI (HOP-62 NSCLC) was > 100 µM, the TGI (HOP-92 NSCLC) was > 100 µM and the TGI (HS 578T breast) was > 100 µM. For the same compound, the TGI (HT29 colon) was > 100 µM, the TGI (IGROV1 ovarian) was > 100 µM and the TGI (K-562 leukemia) was > 100 µM. For the same compound, the TGI (KM12 colon) was > 100 µM, the TGI (LOX IMVI melanoma) was > 100 µM and the TGI (M14 melanoma) was > 100 µM. For the same compound, the TGI (MALME-3M melanoma) was > 100 µM, the TGI (MCF7 breast) was > 100 µM and the TGI (MDA-MB-231 breast) was > 100 µM. The TGI (MDA-MB-435) was > 100 µM, the TGI (MDA-N) was > 100 µM and the TGI (MOLT-4 leukemia) was > 100 µM. The TGI (NCI-H226 lung) was > 100 µM, the TGI (NCI-H23 lung) was > 100 µM and the TGI (NCI-H460 lung) was > 100 µM. The TGI (NCI-H522 lung) was > 100 µM, the TGI (NCI/ADR-RES ovarian) was > 100 µM and the TGI (OVCAR-3 ovarian) was > 100 µM. The TGI (OVCAR-4 ovarian) was > 100 µM, the TGI (OVCAR-5 ovarian) was > 100 µM and the TGI (OVCAR-8 ovarian) was > 100 µM. For the same compound, the TGI (PC-3 prostate) was > 100 µM, the TGI (RPMI-8226 leukemia) was > 100 µM and the TGI (RXF 393 renal) was > 100 µM. The TGI (SF-268 CNS) was > 100 µM, the TGI (SF-295 CNS) was > 100 µM and the TGI (SF-539 CNS) was > 100 µM. The TGI (SK-MEL-2 melanoma) was > 100 µM, the TGI (SK-MEL-28 melanoma) was > 100 µM and the TGI (SK-MEL-5 melanoma) was > 100 µM. For the same compound, the TGI (SK-OV-3 ovarian) was > 100 µM, the TGI (SN12C renal) was > 100 µM and the TGI (SNB-75 CNS) was > 100 µM. For the same compound, the TGI (SR leukemia) was > 100 µM, the TGI (SW-620 colon) was > 100 µM and the TGI (T-47D breast) was > 100 µM. For the same compound, the TGI (TK-10 renal) was > 100 µM, the TGI (U251 CNS) was > 100 µM and the TGI (UACC-257 melanoma) was > 100 µM. For the same compound, the TGI (UACC-62 melanoma) was > 100 µM and the TGI (UO-31 renal) was > 100 µM.
CCOC(=O)C(=CNc1ccc(F)c(F)c1)C(=O)OCC was tested, and the TGI (786-0 renal) was > 100 µM, the TGI (A498 renal) was > 100 µM and the TGI (A549 NSCLC) was > 100 µM. For the same compound, the TGI (ACHN renal) was > 100 µM, the TGI (CAKI-1 renal) was > 100 µM and the TGI (CCRF-CEM leukemia) was > 100 µM. For the same compound, the TGI (COLO 205 colon) was > 100 µM, the TGI (DU-145 prostate) was > 100 µM and the TGI (EKVX NSCLC) was > 100 µM. The TGI (HCC-2998 colon) was > 100 µM, the TGI (HCT-116 colon) was > 100 µM and the TGI (HCT-15 colon) was > 100 µM. For the same compound, the TGI (HL-60(TB) leukemia) was > 100 µM, the TGI (HOP-62 NSCLC) was > 100 µM and the TGI (HOP-92 NSCLC) was > 100 µM. For the same compound, the TGI (HS 578T breast) was > 100 µM, the TGI (HT29 colon) was > 100 µM and the TGI (IGROV1 ovarian) was > 100 µM. The TGI (K-562 leukemia) was > 100 µM, the TGI (KM12 colon) was > 100 µM and the TGI (LOX IMVI melanoma) was > 100 µM. For the same compound, the TGI (M14 melanoma) was > 100 µM, the TGI (MALME-3M melanoma) was > 100 µM and the TGI (MCF7 breast) was > 100 µM. The TGI (MDA-MB-231 breast) was > 100 µM, the TGI (MDA-MB-435) was > 100 µM and the TGI (MDA-N) was > 100 µM. For the same compound, the TGI (MOLT-4 leukemia) was > 100 µM, the TGI (NCI-H226 lung) was > 100 µM and the TGI (NCI-H23 lung) was > 100 µM. The TGI (NCI-H460 lung) was > 100 µM, the TGI (NCI-H522 lung) was > 100 µM and the TGI (NCI/ADR-RES ovarian) was > 100 µM. The TGI (OVCAR-3 ovarian) was > 100 µM, the TGI (OVCAR-4 ovarian) was > 100 µM and the TGI (OVCAR-5 ovarian) was > 100 µM. The TGI (OVCAR-8 ovarian) was > 100 µM, the TGI (PC-3 prostate) was > 100 µM and the TGI (RPMI-8226 leukemia) was > 100 µM. The TGI (RXF 393 renal) was > 100 µM, the TGI (SF-268 CNS) was > 100 µM and the TGI (SF-539 CNS) was > 100 µM. The TGI (SK-MEL-2 melanoma) was > 100 µM, the TGI (SK-MEL-28 melanoma) was > 100 µM and the TGI (SK-MEL-5 melanoma) was > 100 µM. The TGI (SK-OV-3 ovarian) was > 100 µM, the TGI (SN12C renal) was > 100 µM and the TGI (SNB-19 CNS) was > 100 µM. The TGI (SNB-75 CNS) was > 100 µM, the TGI (SR leukemia) was > 100 µM and the TGI (SW-620 colon) was > 100 µM. For the same compound, the TGI (T-47D breast) was > 100 µM, the TGI (TK-10 renal) was > 100 µM and the TGI (U251 CNS) was > 100 µM. For the same compound, the TGI (UACC-257 melanoma) was > 100 µM and the TGI (UO-31 renal) was > 100 µM.
O=C1NCN(c2ccccc2)C12CCN(CC1COc3ccccc3O1)CC2 (stereo not drawn) was tested, and the TGI (786-0 renal) was > 100 µM, the TGI (A498 renal) was > 100 µM and the TGI (A549 NSCLC) was > 100 µM. For the same compound, the TGI (ACHN renal) was > 100 µM, the TGI (CAKI-1 renal) was > 100 µM and the TGI (CCRF-CEM leukemia) was > 100 µM. For the same compound, the TGI (COLO 205 colon) was > 100 µM, the TGI (DU-145 prostate) was > 100 µM and the TGI (EKVX NSCLC) was 98.2 µM. For the same compound, the TGI (HCC-2998 colon) was > 100 µM, the TGI (HCT-116 colon) was > 100 µM and the TGI (HCT-15 colon) was > 100 µM. For the same compound, the TGI (HL-60(TB) leukemia) was > 100 µM, the TGI (HOP-62 NSCLC) was 52.8 µM and the TGI (HS 578T breast) was 71.8 µM. The TGI (HT29 colon) was > 100 µM, the TGI (IGROV1 ovarian) was > 100 µM and the TGI (K-562 leukemia) was > 100 µM. The TGI (LOX IMVI melanoma) was > 100 µM, the TGI (M14 melanoma) was > 100 µM and the TGI (MALME-3M melanoma) was > 100 µM. For the same compound, the TGI (MCF7 breast) was > 100 µM, the TGI (MDA-MB-231 breast) was > 100 µM and the TGI (MDA-MB-435) was > 100 µM. The TGI (MDA-N) was > 100 µM, the TGI (MOLT-4 leukemia) was > 100 µM and the TGI (NCI-H226 lung) was > 100 µM. The TGI (NCI-H23 lung) was > 100 µM, the TGI (NCI-H460 lung) was > 100 µM and the TGI (NCI-H522 lung) was > 100 µM. For the same compound, the TGI (NCI/ADR-RES ovarian) was > 100 µM, the TGI (OVCAR-3 ovarian) was > 100 µM and the TGI (OVCAR-4 ovarian) was > 100 µM. The TGI (OVCAR-5 ovarian) was > 100 µM, the TGI (OVCAR-8 ovarian) was > 100 µM and the TGI (PC-3 prostate) was > 100 µM. The TGI (RPMI-8226 leukemia) was > 100 µM, the TGI (RXF 393 renal) was 96.5 µM and the TGI (SF-268 CNS) was > 100 µM. For the same compound, the TGI (SF-295 CNS) was > 100 µM, the TGI (SF-539 CNS) was > 100 µM and the TGI (SK-MEL-2 melanoma) was > 100 µM. The TGI (SK-MEL-28 melanoma) was > 100 µM, the TGI (SK-MEL-5 melanoma) was > 100 µM and the TGI (SK-OV-3 ovarian) was > 100 µM. The TGI (SN12C renal) was > 100 µM, the TGI (SNB-19 CNS) was 85.3 µM and the TGI (SNB-75 CNS) was 71.4 µM. For the same compound, the TGI (SR leukemia) was > 100 µM, the TGI (SW-620 colon) was > 100 µM and the TGI (T-47D breast) was > 100 µM. The TGI (TK-10 renal) was > 100 µM, the TGI (U251 CNS) was 79.6 µM and the TGI (UACC-257 melanoma) was > 100 µM. For the same compound, the TGI (UACC-62 melanoma) was > 100 µM and the TGI (UO-31 renal) was > 100 µM.
